Reference: patent publication US20250034099A1, “BENZOXAZINONE DERIVATIVES” (CHIA TAI TIANQING PHARMACEUTICAL GROUP CO., LTD., priority 2021, published 2025)

molecular target: T1, MR (Homo sapiens, UniProt P08235); assay: In vitro evaluation of MR antagonistic activity (HEK293/Gal4/MR cell line, Bright Glo); type: cell-based; details: HEK293/Gal4/MR cells, aldosterone final 1 nmol, 24 h incubation
T1 sequence (P08235 726-984 limits assumed): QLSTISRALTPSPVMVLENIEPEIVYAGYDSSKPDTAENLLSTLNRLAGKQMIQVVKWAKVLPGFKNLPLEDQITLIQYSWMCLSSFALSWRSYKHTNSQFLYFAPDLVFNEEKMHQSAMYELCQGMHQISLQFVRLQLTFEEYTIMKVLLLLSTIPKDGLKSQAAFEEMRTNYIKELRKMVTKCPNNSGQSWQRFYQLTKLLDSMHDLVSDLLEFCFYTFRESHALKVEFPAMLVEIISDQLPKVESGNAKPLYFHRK
Experimental: Purpose of Experiment: to assay the MR antagonistic activity of the compounds
A DMEM medium purchased from BI; fetal bovine serum purchased from Biosera; an HEK293/Gal4/MR cell line provided by Wuhan Heyan Biomedical Technology Co., Ltd.; Bright Glo purchased from Promega; and an EnVision multi-marker analyzer (PerkinElmer).
MR cells were seeded in a white 96-well plate, with […] of cell suspension containing 40000 cells added to each well. The cell plate was incubated in a CO2 incubator overnight.
The compounds to be tested were serially 5-fold diluted to the 8th concentration point with a multi-channel pipette, and the compound concentration ranged from 2 mmol to […]. 38 μL of the medium was added to an intermediate plate, and the compound was added to corresponding wells of the intermediate plate at 2 μL/well. After well mixing, the compound solution was transferred to the cell plate at 10 μL/well, and the cell plate was incubated in a CO2 incubator for 1 h. Aldosterone was diluted to 10 nmol with a medium, i.e., 20 μL of aldosterone with a concentration of 1 μmol was added to 1980 μL of the medium. After well mixing, 10 μL of the aldosterone solution was added to each well of the cell plate except the positive control wells. The cell plate was incubated in a CO2 incubator for 24 h. The final concentration of the compound ranged from 10 μmol to 0.128 nmol, and the final concentration of aldosterone was 1 nmol. After the incubation was completed, the cell supernatant was discarded, and the Bright Glo reagent was added to the cell plate at 100 μL/well. Readings were taken immediately on the EnVision multi-marker analyzer.
The original data were converted to inhibition rates using the following equation: % inhibition=((RFUcmpd−AVER(RFUNeg.Ctrl))/((AVER(RFUPos.Ctrl)−AVER(RFUNeg.Ctrl))×100%. Compound curves were fitted by log(inhibitor) vs. response-Variable slope of Graphpad Prism 5. IC50 values were calculated by the software using the following formula: Y=Bottom+(Top−Bottom)/(1+10^((Log IC50−X)×HillSlope)).

Row | IC50 [nM] | SMILES
1 | 32 | Cc1nnn(C[C@H]2COc3cc(F)ccc3N2Cc2cc3c(cc2F)OCC(=O)N3)n1 [Compound 24]
2 | 27 | Cc1noc(C[C@H]2COc3cc(F)ccc3N2Cc2ccc3c(c2)NC(=O)CO3)n1 [Compound 12]
3 | 27 | O=C1COc2cc(F)c(CN3c4ccc(F)cc4OC[C@@H]3Cn3nccn3)cc2N1 [Compound 20]
4 | 403 | CCNC(=O)C[C@H]1COc2cc(F)ccc2N1Cc1ccc2c(c1)NC(=O)CO2 [Compound 9]
5 | 66 | Cc1noc(C[C@H]2COc3cc(F)ccc3N2Cc2cc3c(cc2F)OCC(=O)N3)n1 [Compound 19]
6 | 68 | Cn1nnc(C[C@H]2COc3cc(F)ccc3N2Cc2cc3c(cc2F)OCC(=O)N3)n1 [Compound 30]
7 | 35 | [2H]C([2H])([2H])c1noc(C[C@H]2COc3cc(F)ccc3N2Cc2ccc3c(c2)NC(=O)CO3)n1 [Compound 28]
8 | 273 | CNC(=O)CC1COc2cc(F)ccc2N1C(C)c1ccc2c(c1)NC(=O)CO2 (stereo not drawn) [Compound 6]
9 | 18 | NC(=O)CC1COc2cc(F)cc(F)c2N1Cc1ccc2c(c1Cl)NC(=O)CO2 (single isomer, unassigned) [Compound 43a]
10 | 62 | Cc1noc(C[C@H]2COc3cc(F)ccc3N2Cc2cc(F)c3c(c2)NC(=O)CO3)n1 [Compound 18]
11 | 80 | Cn1nnc(C[C@H]2COc3cc(F)ccc3N2Cc2ccc3c(c2)NC(=O)CO3)n1 [Compound 27]
12 | 72 | Cc1nc(C[C@H]2COc3cc(F)ccc3N2Cc2cc(Cl)c3c(c2)NC(=O)CO3)no1 [Compound 25]
13 | 32 | Cn1nnc(C[C@H]2COc3cc(F)ccc3N2Cc2cc(Cl)c3c(c2)NC(=O)CO3)n1 [Compound 26]
14 | 78 | Cc1nnn(C[C@H]2COc3cc(F)ccc3N2Cc2ccc3c(c2)NC(=O)CO3)n1 [Compound 14]
15 | 130 | CNC(=O)CC1COc2cc(F)cc(F)c2N1Cc1cc(C)c2c(c1)NC(=O)CO2 (single isomer, unassigned) [Compound 8a]
16 | 29 | [2H]C([2H])(c1ccc2c(c1)NC(=O)CO2)N1c2ccc(F)cc2OC[C@@H]1Cc1nc(C)no1 [Compound 23]
17 | 76.6 | Cc1noc(CC2COc3cc(F)ccc3N2C(C)c2ccc3c(c2)NC(=O)CO3)n1 (single isomer, unassigned) [Compound 35b]
18 | 15 | Cc1noc(C[C@H]2COc3cc(F)ccc3N2Cc2cc(Cl)c3c(c2)NC(=O)CO3)n1 [Compound 10]
19 | 11 | Cn1nnc(C[C@H]2COc3cc(F)ccc3N2Cc2ccc3c(c2F)NC(=O)CO3)n1 [Compound 33]
20 | 325 | CNC(=O)CC1COc2cc(F)cc(F)c2N1Cc1ccc2c(c1)NC(=O)CO2 (stereo not drawn) [Compound 5]
21 | 50 | O=C1COc2ccc(CN3c4ccc(F)cc4OC[C@@H]3Cn3nccn3)cc2N1 [Compound 21]
22 | 50.8 | O=C1COc2ccc(CN3c4ccc(F)cc4OC[C@@H]3Cc3c[nH]nn3)c(F)c2N1 [Compound 32]
23 | 22 | [2H]C([2H])([2H])c1noc(C[C@H]2COc3cc(F)ccc3N2Cc2cc3c(cc2F)OCC(=O)N3)n1 [Compound 29]
24 | 289 | CNC(=O)CC1COc2cc(F)ccc2N1Cc1cc(Cl)c2c(c1)NC(=O)CO2 (stereo not drawn) [Compound 4]
25 | 251 | Cc1noc(CC2COc3cc(F)ccc3N2C(C)c2ccc3c(c2)NC(=O)CO3)n1 (single isomer, unassigned) [Compound 35a]
26 | 22.6 | Cn1nnc(C[C@H]2COc3cc(F)ccc3N2Cc2ccc3c(c2Cl)NC(=O)CO3)n1 [Compound 38]
27 | 519 | CS(=O)(=O)CC1COc2cc(F)ccc2N1Cc1ccc2c(c1)NC(=O)CO2 (stereo not drawn) [Compound 7]
28 | 107 | O=C1COc2ccc(CN3c4ccc(F)cc4OC[C@@H]3Cc3nc(CO)no3)cc2N1 [Compound 15]
29 | 9 | Cc1noc(C[C@H]2COc3cc(F)ccc3N2Cc2ccc3c(c2F)NC(=O)CO3)n1 [Compound 22]
30 | 130 | [2H]C([2H])([2H])n1nnc(C[C@H]2COc3cc(F)ccc3N2Cc2ccc3c(c2)NC(=O)CO3)n1 [Compound 34]
